From US3953293A, “Process for the preparation of xylostasin” (Takeda Chemical Industries, Ltd., priority 1972, dated 1976)
In brackets after ≈: the same amount, converted by molar mass.

Key:
Bacillus brevis IFO 3331 = experiment: Minimal inhibitory concentration by the agar dilution method; format: cell-based; conditions: Brevibacillus brevis, IFO3331, bouillon agar
Source text: (§1) Minimal inhibitory concentrations by the
(§2) The media used for the test are bouillon agar for the common bacteria and glycerin bouillon agar for acid fast bacteria.

Bacillus cereus IFO 3466 = experiment: as above; format: cell-based; conditions: IFO3466, bouillon agar
Source text: as §1, §2

[1] = tested on: Bacillus subtilis PCI 219; experiment: as above; format: cell-based; conditions: PCI219, bouillon agar
Source text: as §1, §2

[2] = tested on: Escherichia coli IFO 3044; experiment: as above; format: cell-based; conditions: IFO3044, bouillon agar
Source text: as §1, §2

[3] = tested on: Mycobacterium avium (Neomycin-resistant); experiment: as above; format: cell-based; conditions: read-out: Minimal inhibitory concentration
Source text: as §1, §2

[4] = tested on: Mycobacterium avium (Streptomycin-resistant); experiment: as above; format: cell-based; conditions: read-out: Minimal inhibitory concentration
Source text: as §1, §2

[5] = tested on: Mycobacterium avium IFO 3153; experiment: as above; format: cell-based; conditions: IFO3153, glycerin bouillon agar
Source text: as §1, §2

[6] = tested on: Mycobacterium phlei IFO 3158; experiment: as above; format: cell-based; conditions: Mycolicibacterium phlei, IFO3158, glycerin bouillon agar
Source text: as §1, §2

[7] = tested on: Mycobacterium smegmatis IFO 3083; experiment: as above; format: cell-based; conditions: Mycolicibacterium smegmatis, IFO3083, glycerin bouillon agar
Source text: as §1, §2

[8] = tested on: Proteus vulgaris IFO 3045; experiment: as above; format: cell-based; conditions: IFO3045, bouillon agar
Source text: as §1, §2

[9] = tested on: Pseudomonas aeruginosa IFO 3080; experiment: as above; format: cell-based; conditions: IFO3080, bouillon agar
Source text: as §1, §2

Sarcina lutea IFO 3232 = experiment: as above; format: cell-based; conditions: Micrococcus luteus, IFO3232, bouillon agar
Source text: as §1, §2

Shigella flexneri EW-10 = experiment: as above; format: cell-based; conditions: EW10, bouillon agar
Source text: as §1, §2

[10] = tested on: Staphylococcus aureus FDA 209P; experiment: as above; format: cell-based; conditions: FDA209P, bouillon agar
Source text: as §1, §2

[11] = Acute toxicity by intravenous injection into mice; conditions: mouse, in vivo, free base
Method: The acute toxicity of xylostasin was examined by intravenous injection into mice. The LD50 value for the free base was approximately 1,000 mg/kg.

Escherichia coli 0-111 = experiment: Anti-infection test in mice; format: in vivo; conditions: mice infected with Escherichia coli 0-111; single subcutaneous dose of 10 mg/kg immediately after infection

NC[C@H]1O[C@H](O[C@H]2[C@H](O[C@@H]3O[C@H](CO)[C@H](O)[C@H]3O)[C@@H](O)[C@H](N)C[C@@H]2N)[C@H](N)[C@@H](O)[C@@H]1O [xylostasin, O-β-D-xylofuranosyl-(1 → 5)-O-[α-2,6-diamino-2,6-dideoxy-D-glucopyranosyl-(1 → 4)]-2-deoxystreptamine]
MIC (Bacillus brevis IFO 3331): 25 µg/mL (≈ 55 µM)
MIC (Bacillus cereus IFO 3466): 50 µg/mL (≈ 110 µM)
MIC [1]: 3.12 µg/mL (≈ 6.88 µM)
MIC [2]: 6.25 µg/mL (≈ 13.8 µM)
MIC [3]: > 50 µg/mL
MIC [4]: 3.12 µg/mL (≈ 6.88 µM)
MIC [5]: 1.6 µg/mL (≈ 3.52 µM)
MIC [6]: 1.6 µg/mL (≈ 3.52 µM)
MIC [7]: 1.6 µg/mL (≈ 3.52 µM)
MIC [8]: 50 µg/mL (≈ 110 µM)
MIC [9]: > 50 µg/mL
MIC (Sarcina lutea IFO 3232): 25 µg/mL (≈ 55 µM)
MIC (Shigella flexneri EW-10): 12.5 µg/mL (≈ 27.5 µM)
MIC [10]: 6.25 µg/mL (≈ 13.8 µM)
LD50 [11]: ~1000 mg/kg
death of the mice (Escherichia coli 0-111): completely prevented
